Assay results: patent US20240351988A1, “ARYL HYDROCARBON RECEPTOR MODULATORS AND THEIR USE IN THE TREATMENT OF DISEASES AND DISORDERS” (Allianthera (Suzhou) Biopharmaceutical Co., Ltd., priority 2021, published 2024)
Values joined by “and” are separate entries in the source; they are usually repeats but may differ in a detail not shown here. Equal entries are not always repeated.

The compounds below were run on AHR-regulated gene CYP1A1 in human monocytic U937 cell line (assay: AHR-regulated CYP1A1 expression in U937 cells (qPCR, kynurenic acid stimulated)). Settings: U-937, 200 μM KA, 16 hours, CYP1A1 vs GAPDH, read-out: Cyp ANATAG mode assay: IC50.
Assay type: cell-based
Description: To evaluate the AHR inhibitory activity of the test compounds, quantitative PCR analysis was used to determine expression level of the AHR-regulated gene CYP1A1 in a human monocytic U937 cell line upon stimulation of 200 μM kynurenic acid (KA) in the absence or presence of AHR inhibitor. U937 cells were seeded at a concentration of 5×10^5 cells/well in 200 μL of growth medium in 96-well cell culture microplates. CYP1A1 expression was induced with 200 μM KA (positive control) in the absence or presence of the test compounds for 16 hours. Human U937 cells were typically incubated with eight different concentrations of test compounds (typical dilution: […], 3.2 nM, 16 nM, 80 nM, 400 nM, 2 μM, 10 μM) and analyzed in duplicate on the same cell culture microplate. After stimulation, the media was removed, the cell RNA was isolated using RNeasy Mini Kit (Qiagen, 74104) and reverse-transcribed to cDNA using PrimeScript RT reagent Kit (Perfect Real Time) (TaKaRa, RR037A). Unstimulated cells were used as the negative control. Taqman probes for human CYP1A1 (Hs01054797_g1) and human GAPDH (Hs02786624_g1) were used to analyze fold expression of CYP1A1 of GAPDH.

IC50 [nM]	SMILES
100 to 400	CC(NC(=O)c1cc(-c2ccc(Cl)cc2)nn(-c2cccc(F)c2)c1=O)C(=O)N(C)C (stereo not shown) [Compound 13]
< 100	C[C@@H](CO)NC(=O)c1cc(-c2ccc(-c3ccc(F)nc3)nc2)nn(-c2cnn(C)c2)c1=O [Compound 195]
< 100	C[C@@H](CO)NC(=O)c1cc(-c2ccc(-c3ccccc3F)nc2)nn(-c2cnn(C)c2)c1=O [Compound 192]
< 100	COC[C@H](C)NC(=O)c1cc(-c2ccc(Cl)cc2)nn(-c2cn[nH]c2)c1=O [Compound 62]
< 100	C[C@@H](CO)NC(=O)c1cc(-n2cc(-c3ccc(Cl)cc3)cn2)nn(-c2cnn(C)c2)c1=O [Compound 161]
< 100	COC[C@H](C)NC(=O)c1cc(-c2ccc3cc(OC)ccc3c2)nn(-c2cnn(C)c2)c1=O [Compound 113]
< 100	CNC(=O)[C@H](C)NC(=O)c1cc(-c2ccc(Cl)cc2)nn(-c2cnn(C)c2)c1=O [Compound 100]
< 100	COC[C@H](C)NC(=O)c1cc(-c2ccc(C(F)(F)F)cc2)nn(-c2cnn(C)c2)c1=O [Compound 70]
< 100	CNC(=O)[C@H](C)NC(=O)c1cc(-c2ccc(-c3ccc(Cl)cc3)cc2)nn(-c2cnn(C)c2)c1=O [Compound 171]

Each compound was assayed against T1, Human Aryl Hydrocarbon Receptor (AhR) (Homo sapiens, UniProt P35869) (assay: AHR antagonist reporter assay in human cell line (INDIGO AhR Reporter Assay System, kynurenic acid activated)). Settings: 200 μM kynurenic acid, 24 hours, luciferase; read-out: AhR Reporter Assay KA Antagonist Mode: IC50.
T1 construct: purchased INDIGO Bioscience #1B06001-32; host or cells: AhR Reporter Cell (kit's proprietary reporter cells)
T1 sequence (P35869 11-848): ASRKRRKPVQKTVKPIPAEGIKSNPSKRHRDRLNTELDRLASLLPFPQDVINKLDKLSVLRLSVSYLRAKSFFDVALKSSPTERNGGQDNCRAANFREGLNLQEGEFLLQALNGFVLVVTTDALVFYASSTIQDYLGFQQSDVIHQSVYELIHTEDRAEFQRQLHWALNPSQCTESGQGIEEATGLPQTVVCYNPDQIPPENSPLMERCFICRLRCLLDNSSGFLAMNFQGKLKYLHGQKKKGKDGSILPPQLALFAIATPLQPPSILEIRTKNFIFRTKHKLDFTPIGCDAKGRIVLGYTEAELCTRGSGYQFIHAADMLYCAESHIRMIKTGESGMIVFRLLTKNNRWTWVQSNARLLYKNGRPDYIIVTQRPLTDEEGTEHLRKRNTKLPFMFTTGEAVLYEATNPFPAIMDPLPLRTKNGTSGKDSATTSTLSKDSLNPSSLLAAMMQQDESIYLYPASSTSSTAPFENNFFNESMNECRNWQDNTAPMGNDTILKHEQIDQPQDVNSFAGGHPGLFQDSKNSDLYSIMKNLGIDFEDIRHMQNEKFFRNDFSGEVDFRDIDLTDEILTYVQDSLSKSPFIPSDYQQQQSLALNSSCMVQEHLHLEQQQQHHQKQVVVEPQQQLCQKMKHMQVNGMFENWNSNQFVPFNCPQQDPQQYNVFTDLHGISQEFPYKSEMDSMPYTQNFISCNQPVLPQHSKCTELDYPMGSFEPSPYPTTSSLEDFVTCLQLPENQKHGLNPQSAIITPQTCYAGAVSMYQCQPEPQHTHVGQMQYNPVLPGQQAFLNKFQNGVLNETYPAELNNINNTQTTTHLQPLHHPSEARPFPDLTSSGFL
Assay type: cell-based
Description: The AhR reporter assay was performed following the protocol of the Human Aryl Hydrocarbon Receptor (AhR) Reporter Assay System (INDIGO Bioscience, #1B06001-32). AhR Reporter Cell was thawed and pre-incubated in Cell Recovery Medium (CRM) for 6 hours. The media was then removed and the cells were incubated with Compound Screening Medium (CSM) supplemented with 200 μM kynurenic acid for 24 hours in the absence (negative control) or presence of increasing concentrations of test compounds (typical dilution: […], 3.2 nM, 16 nM, 80 nM, 400 nM, 2 μM, 10 μM in duplicates). For positive inhibition control, cells activated with 200 μM kynurenic acid were incubated in the presence of literature AHR antagonists; alternatively un-activated cells were used as positive inhibition control. Following 24 hours incubation, the media was removed and Luciferase Detection Reagent (LDR) added. The firefly luciferase activity was quantified using a plate reader. Results were normalized by positive and negative controls.

SMILES	IC50
COC[C@H](C)NC(=O)c1cc(-c2ccc(F)cc2Cl)nn(-c2cnn(C)c2)c1=O [Compound 107]	> 400 nM
CNCCNC(=O)c1cc(-c2ccc(Cl)cc2)nn(-c2cccc(F)c2)c1=O [Compound 18]	> 400 nM
CN(C)CCNC(=O)c1cc(-c2ccc(Cl)cc2)nn(-c2cnn(C)c2)c1=O [Compound 47]	> 400 nM
NCCNC(=O)c1cc(-c2ccc(Cl)cc2)nn(-c2cccc(F)c2)c1=O [Compound 17]	> 400 nM
CNCC(C)NC(=O)c1cc(-c2ccc(Cl)cc2)nn(-c2cccc(F)c2)c1=O (stereo not shown) [Compound 15]	> 400 nM
COC[C@H](C)NC(=O)c1cc(-c2cnc(C(F)(F)F)s2)nn(-c2cnn(C)c2)c1=O [Compound 80]	> 400 nM
COC[C@H](C)NC(=O)c1cc(-c2ccc(S(C)(=O)=O)cc2)nn(-c2cnn(C)c2)c1=O [Compound 66]	> 400 nM
COC[C@H](C)NC(=O)c1cc(-c2ccc3cnccc3c2)nn(-c2cnn(C)c2)c1=O [Compound 133]	> 400 nM
COC[C@H](C)NC(=O)c1cc(-c2ccc3c(c2)OCCO3)nn(-c2cnn(C)c2)c1=O [Compound 128]	> 400 nM
COC[C@H](C)NC(=O)c1cc(-n2ccc3ccccc32)nn(-c2cnn(C)c2)c1=O [Compound 151]	> 400 nM
COC[C@H](C)NC(=O)c1cc(N2CCC(C)(C)CC2)nn(-c2cnn(C)c2)c1=O [Compound 127]	> 400 nM
COC[C@H](C)NC(=O)c1cc(-c2cnc(N)nc2)nn(-c2cnn(C)c2)c1=O [Compound 91]	> 400 nM
COC[C@H](C)NC(=O)c1cc(-c2ccc(C)cn2)nn(-c2cnn(C)c2)c1=O [Compound 67]	> 400 nM and < 100 nM
CC(NC(=O)c1cc(-c2ccc(Cl)cc2)nn(-c2cccc(F)c2)c1=O)C(=O)O (stereo not shown) [Compound 10]	> 400 nM
CNCCNC(=O)c1cc(-c2ccc(Cl)cc2)nn(-c2cnn(C)c2)c1=O [Compound 46]	> 400 nM
COC[C@H](C)NC(=O)c1cc(N2CCC3(CCCC3)CC2)nn(-c2cnn(C)c2)c1=O [Compound 116]	> 400 nM

SMILES	IC50
O=C(NC1CNC1)c1cc(-c2ccc(Cl)cc2)nn(-c2cccc(F)c2)c1=O [Compound 5]	> 400 nM
COC[C@H](C)NC(=O)c1cc(-n2nnc3ccccc32)nn(-c2cnn(C)c2)c1=O [Compound 158]	> 400 nM
COC[C@H](C)NC(=O)c1cc(-c2cc3cccnc3cc2F)nn(-c2cnn(C)c2)c1=O [Compound 121]	> 400 nM
COC[C@H](C)NC(=O)c1cc(-n2cc(C(F)(F)F)cn2)nn(-c2cnn(C)c2)c1=O [Compound 136]	> 400 nM
COC[C@H](C)NC(=O)c1cc(N2CCC3(CCCCC3)C2)nn(-c2cnn(C)c2)c1=O [Compound 145]	> 400 nM
COC[C@H](C)NC(=O)c1cc(-n2cc(C)c(C)n2)nn(-c2cnn(C)c2)c1=O [Compound 135]	> 400 nM
C[C@H](NC(=O)c1cc(-c2ccc(C(=O)N(C)C)cc2)nn(-c2cccc(F)c2)c1=O)C(=O)N(C)C [Compound 178]	> 400 nM
CC(CN)NC(=O)c1cc(-c2ccc(Cl)cc2)nn(-c2cccc(F)c2)c1=O (stereo not shown) [Compound 14]	> 400 nM
COC[C@H](C)NC(=O)c1cc(-c2ccc3c(C)ccnc3c2)nn(-c2cnn(C)c2)c1=O [Compound 129]	> 400 nM
CC(NC(=O)c1cc(-c2ccc(Cl)cc2)nn(-c2cnn(C)c2)c1=O)C(=O)O (stereo not shown) [Compound 37]	> 400 nM
COC[C@H](C)NC(=O)c1cc(-c2ccccc2F)nn(-c2cnn(C)c2)c1=O [Compound 108]	> 400 nM
CNC(=O)[C@H](C)NC(=O)c1cc(-n2ncc(-c3ccc(Cl)cc3)n2)nn(-c2cnn(C)c2)c1=O [Compound 190]	> 400 nM
CN(CCN)C(=O)c1cc(-c2ccc(Cl)cc2)nn(-c2cccc(F)c2)c1=O [Compound 23]	> 400 nM
CN(CCO)C(=O)c1cc(-c2ccc(Cl)cc2)nn(-c2cccc(F)c2)c1=O [Compound 22]	> 400 nM
Cn1cc(-n2nc(-c3ccc(Cl)cc3)cc(C(=O)NCC(=O)O)c2=O)cn1 [Compound 33]	> 400 nM
CC(NC(=O)c1cc(-c2ccc(Cl)cc2)nn(-c2cccc(F)c2)c1=O)C(N)=O (stereo not shown) [Compound 11]	> 400 nM

The next lines start with the values.

IC50	SMILES
< 100 nM	CC(NC(=O)c1cc(-c2ccc(Cl)cc2)nn(-c2cccc(F)c2)c1=O)C(=O)N(C)C (stereo not shown) [Compound 13]
< 100 nM	C[C@@H](CO)NC(=O)c1cc(-c2ccc(-c3ccc(F)nc3)nc2)nn(-c2cnn(C)c2)c1=O [Compound 195]
< 100 nM	C[C@@H](CO)NC(=O)c1cc(-c2ccc(-c3ccccc3F)nc2)nn(-c2cnn(C)c2)c1=O [Compound 192]
100 to 400 nM	COC[C@H](C)NC(=O)c1cc(-c2ccc(Cl)cc2)nn(-c2cn[nH]c2)c1=O [Compound 62]
< 100 nM	C[C@@H](CO)NC(=O)c1cc(-n2cc(-c3ccc(Cl)cc3)cn2)nn(-c2cnn(C)c2)c1=O [Compound 161]
< 100 nM	COC[C@H](C)NC(=O)c1cc(-c2ccc3cc(OC)ccc3c2)nn(-c2cnn(C)c2)c1=O [Compound 113]
< 100 nM	CNC(=O)[C@H](C)NC(=O)c1cc(-c2ccc(Cl)cc2)nn(-c2cnn(C)c2)c1=O [Compound 100]
< 100 nM	COC[C@H](C)NC(=O)c1cc(-c2ccc(C(F)(F)F)cc2)nn(-c2cnn(C)c2)c1=O [Compound 70]
< 100 nM	CNC(=O)[C@H](C)NC(=O)c1cc(-c2ccc(-c3ccc(Cl)cc3)cc2)nn(-c2cnn(C)c2)c1=O [Compound 171]
> 400 nM	COC[C@H](C)NC(=O)c1cc(-c2ccc(F)c(F)c2)nn(-c2cnn(C)c2)c1=O [Compound 103]
> 400 nM	C[C@@H](CO)NC(=O)c1cc(-c2ccc(-c3ccc4ncccc4c3)nc2)nn(-c2cnn(C)c2)c1=O [Compound 196]
> 400 nM	COC[C@H](C)NC(=O)c1cc(-c2ccc3nc(N)ccc3c2)nn(-c2cnn(C)c2)c1=O [Compound 131]
> 400 nM	COC[C@H](C)NC(=O)c1cc(-c2ccc(F)c(Cl)c2)nn(-c2cnn(C)c2)c1=O [Compound 102]
> 400 nM	COC[C@H](C)NC(=O)c1cc(C2CCCCC2)nn(-c2cnn(C)c2)c1=O [Compound 115]
100 to 400 nM	COC[C@H](C)NC(=O)c1cc(-n2nc3ccccc3n2)nn(-c2cnn(C)c2)c1=O [Compound 159]
100 to 400 nM	CNC(=O)C(C)(C)NC(=O)c1cc(-c2ccc(OC(F)(F)F)cc2)nn(-c2cnn(C)c2)c1=O [Compound 174]
< 100 nM	COCC(C)NC(=O)c1cc(-c2ccc(Cl)cc2)nn(-c2cccc(F)c2)c1=O (stereo not shown) [Compound 7]
100 to 400 nM	CN(C)C(=O)CNC(=O)c1cc(-c2ccc(Cl)cc2)nn(-c2cccc(F)c2)c1=O [Compound 2]
< 100 nM	C[C@@H](CO)NC(=O)c1cc(N2CCN(c3ccccc3F)CC2)nn(-c2cnn(C)c2)c1=O [Compound 209]
< 100 nM	COC[C@H](C)NC(=O)c1cc(-c2cccc(Cl)c2)nn(-c2cnn(C)c2)c1=O [Compound 104]
